{
  "source": "ChEMBL document CHEMBL5465560",
  "about": "“Selectivity Literature for EUbOPEN Chemogenomic Library” (2024)",
  "key": {"CREB-binding protein": {"target": "CREB-binding protein (Homo sapiens, UniProt Q92793)", "assay": "Selectivity interaction (Human bromodomain panel (DSF assay)) EUB0000233b CREBBP"}, "[1]": {"target": "Atypical kinase COQ8A, mitochondrial (Homo sapiens, UniProt Q8NI60)", "sequence (Q8NI60 163-647 limits assumed)": "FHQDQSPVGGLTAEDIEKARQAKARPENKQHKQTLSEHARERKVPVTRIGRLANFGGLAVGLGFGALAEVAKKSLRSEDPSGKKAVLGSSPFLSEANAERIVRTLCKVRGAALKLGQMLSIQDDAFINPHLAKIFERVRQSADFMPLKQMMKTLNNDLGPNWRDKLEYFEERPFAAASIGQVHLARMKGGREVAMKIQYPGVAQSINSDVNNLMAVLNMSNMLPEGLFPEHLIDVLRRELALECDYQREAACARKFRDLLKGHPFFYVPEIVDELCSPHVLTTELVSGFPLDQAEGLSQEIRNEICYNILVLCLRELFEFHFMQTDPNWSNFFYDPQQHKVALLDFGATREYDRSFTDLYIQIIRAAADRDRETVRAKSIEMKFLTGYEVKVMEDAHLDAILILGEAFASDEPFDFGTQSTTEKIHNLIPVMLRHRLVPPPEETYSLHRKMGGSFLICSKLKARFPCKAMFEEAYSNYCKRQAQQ", "assay": "Selectivity interaction (KinomeScan (DiscoverX)) EUB0000595a ADCK3", "settings": "at 10 µM"}, "[2]": {"target": "Polycomb protein SUZ12 (Homo sapiens) (UniProt Q15022)", "sequence (Q15022 whole entry)": "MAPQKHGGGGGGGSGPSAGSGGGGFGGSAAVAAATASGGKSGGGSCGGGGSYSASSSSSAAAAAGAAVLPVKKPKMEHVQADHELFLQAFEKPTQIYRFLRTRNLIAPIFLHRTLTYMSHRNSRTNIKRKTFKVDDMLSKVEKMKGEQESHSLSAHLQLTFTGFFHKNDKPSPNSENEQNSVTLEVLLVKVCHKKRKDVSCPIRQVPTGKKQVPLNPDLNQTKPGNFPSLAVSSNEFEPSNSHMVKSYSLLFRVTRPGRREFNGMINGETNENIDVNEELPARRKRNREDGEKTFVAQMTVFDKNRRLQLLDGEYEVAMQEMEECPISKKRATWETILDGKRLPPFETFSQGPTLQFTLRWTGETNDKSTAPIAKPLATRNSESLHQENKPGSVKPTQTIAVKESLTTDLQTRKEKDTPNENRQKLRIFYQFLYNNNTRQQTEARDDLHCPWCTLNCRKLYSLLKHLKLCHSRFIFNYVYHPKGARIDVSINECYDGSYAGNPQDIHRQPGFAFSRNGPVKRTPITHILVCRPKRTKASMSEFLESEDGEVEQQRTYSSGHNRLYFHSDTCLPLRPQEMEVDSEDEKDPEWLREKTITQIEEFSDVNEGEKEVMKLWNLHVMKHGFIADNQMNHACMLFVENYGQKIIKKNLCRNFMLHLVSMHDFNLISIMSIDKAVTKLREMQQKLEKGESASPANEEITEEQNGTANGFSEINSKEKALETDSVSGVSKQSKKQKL", "settings": "at 1 µM"}, "[3]": {"target": "Casein kinase I isoform gamma-3 (Homo sapiens) (UniProt Q9Y6M4)", "sequence (Q9Y6M4 whole entry, looked up, canonical isoform)": "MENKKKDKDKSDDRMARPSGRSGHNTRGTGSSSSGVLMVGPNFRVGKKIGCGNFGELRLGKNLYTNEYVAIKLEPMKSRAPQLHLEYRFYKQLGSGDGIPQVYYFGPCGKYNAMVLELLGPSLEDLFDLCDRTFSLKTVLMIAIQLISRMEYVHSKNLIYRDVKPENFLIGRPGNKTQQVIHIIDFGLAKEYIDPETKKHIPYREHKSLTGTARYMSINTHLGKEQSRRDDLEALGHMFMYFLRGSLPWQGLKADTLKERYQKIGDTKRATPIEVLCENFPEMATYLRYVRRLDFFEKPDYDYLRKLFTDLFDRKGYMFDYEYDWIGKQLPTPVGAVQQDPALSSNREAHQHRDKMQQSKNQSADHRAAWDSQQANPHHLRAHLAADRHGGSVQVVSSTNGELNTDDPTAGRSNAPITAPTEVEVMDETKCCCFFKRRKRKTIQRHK", "assay": "Selectivity interaction (KinomeScan (DiscoverX)) EUB0001079a CSNK1G3", "settings": "at 1 µM"}, "[4]": {"system": "Dual specificity mitogen-activated protein kinase kinase 6 (Homo sapiens), P52564 [S207E,T211E]", "sequence (P52564 whole entry S207E/T211E)": "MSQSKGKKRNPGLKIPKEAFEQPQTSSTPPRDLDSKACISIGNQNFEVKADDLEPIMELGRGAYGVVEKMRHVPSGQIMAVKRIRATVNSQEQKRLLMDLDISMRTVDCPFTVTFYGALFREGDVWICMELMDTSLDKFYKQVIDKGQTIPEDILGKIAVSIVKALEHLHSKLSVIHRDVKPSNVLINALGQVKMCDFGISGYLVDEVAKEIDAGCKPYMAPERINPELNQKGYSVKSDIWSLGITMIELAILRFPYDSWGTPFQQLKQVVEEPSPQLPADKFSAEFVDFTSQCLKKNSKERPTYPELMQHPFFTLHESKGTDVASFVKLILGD", "assay": "Selectivity interaction (LanthaScreen Eu Kinase Binding Assay) EUB0001632a MAP2K6", "settings": "at 10 µM"}, "[5]": {"target": "T1, Ankyrin repeat and protein kinase domain-containing protein 1 (Homo sapiens) (UniProt Q8NFD2)", "T1 sequence (whole entry)": "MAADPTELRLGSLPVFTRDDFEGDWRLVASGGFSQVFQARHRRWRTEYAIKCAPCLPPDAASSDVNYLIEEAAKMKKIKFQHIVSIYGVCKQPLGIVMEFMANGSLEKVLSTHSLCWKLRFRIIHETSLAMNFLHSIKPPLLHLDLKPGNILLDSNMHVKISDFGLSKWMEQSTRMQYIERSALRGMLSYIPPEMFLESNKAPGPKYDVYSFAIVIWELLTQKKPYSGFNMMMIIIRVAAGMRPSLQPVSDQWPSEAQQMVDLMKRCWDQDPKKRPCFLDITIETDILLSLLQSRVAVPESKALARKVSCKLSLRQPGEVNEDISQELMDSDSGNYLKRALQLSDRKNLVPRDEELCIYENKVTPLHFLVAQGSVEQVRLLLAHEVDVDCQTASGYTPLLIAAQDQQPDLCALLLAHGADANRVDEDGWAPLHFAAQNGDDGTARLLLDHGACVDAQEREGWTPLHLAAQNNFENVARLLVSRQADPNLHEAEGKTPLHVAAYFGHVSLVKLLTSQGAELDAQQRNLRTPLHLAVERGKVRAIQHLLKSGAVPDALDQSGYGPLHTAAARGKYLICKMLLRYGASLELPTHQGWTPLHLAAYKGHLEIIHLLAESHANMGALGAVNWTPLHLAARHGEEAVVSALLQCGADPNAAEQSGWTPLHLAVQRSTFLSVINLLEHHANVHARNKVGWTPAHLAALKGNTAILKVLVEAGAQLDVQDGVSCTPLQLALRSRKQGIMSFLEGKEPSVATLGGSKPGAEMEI", "settings": "at 10 µM"}, "[6]": {"target": "T2, Cyclin-G-associated kinase (Homo sapiens) (UniProt O14976)", "T2 sequence (whole entry)": "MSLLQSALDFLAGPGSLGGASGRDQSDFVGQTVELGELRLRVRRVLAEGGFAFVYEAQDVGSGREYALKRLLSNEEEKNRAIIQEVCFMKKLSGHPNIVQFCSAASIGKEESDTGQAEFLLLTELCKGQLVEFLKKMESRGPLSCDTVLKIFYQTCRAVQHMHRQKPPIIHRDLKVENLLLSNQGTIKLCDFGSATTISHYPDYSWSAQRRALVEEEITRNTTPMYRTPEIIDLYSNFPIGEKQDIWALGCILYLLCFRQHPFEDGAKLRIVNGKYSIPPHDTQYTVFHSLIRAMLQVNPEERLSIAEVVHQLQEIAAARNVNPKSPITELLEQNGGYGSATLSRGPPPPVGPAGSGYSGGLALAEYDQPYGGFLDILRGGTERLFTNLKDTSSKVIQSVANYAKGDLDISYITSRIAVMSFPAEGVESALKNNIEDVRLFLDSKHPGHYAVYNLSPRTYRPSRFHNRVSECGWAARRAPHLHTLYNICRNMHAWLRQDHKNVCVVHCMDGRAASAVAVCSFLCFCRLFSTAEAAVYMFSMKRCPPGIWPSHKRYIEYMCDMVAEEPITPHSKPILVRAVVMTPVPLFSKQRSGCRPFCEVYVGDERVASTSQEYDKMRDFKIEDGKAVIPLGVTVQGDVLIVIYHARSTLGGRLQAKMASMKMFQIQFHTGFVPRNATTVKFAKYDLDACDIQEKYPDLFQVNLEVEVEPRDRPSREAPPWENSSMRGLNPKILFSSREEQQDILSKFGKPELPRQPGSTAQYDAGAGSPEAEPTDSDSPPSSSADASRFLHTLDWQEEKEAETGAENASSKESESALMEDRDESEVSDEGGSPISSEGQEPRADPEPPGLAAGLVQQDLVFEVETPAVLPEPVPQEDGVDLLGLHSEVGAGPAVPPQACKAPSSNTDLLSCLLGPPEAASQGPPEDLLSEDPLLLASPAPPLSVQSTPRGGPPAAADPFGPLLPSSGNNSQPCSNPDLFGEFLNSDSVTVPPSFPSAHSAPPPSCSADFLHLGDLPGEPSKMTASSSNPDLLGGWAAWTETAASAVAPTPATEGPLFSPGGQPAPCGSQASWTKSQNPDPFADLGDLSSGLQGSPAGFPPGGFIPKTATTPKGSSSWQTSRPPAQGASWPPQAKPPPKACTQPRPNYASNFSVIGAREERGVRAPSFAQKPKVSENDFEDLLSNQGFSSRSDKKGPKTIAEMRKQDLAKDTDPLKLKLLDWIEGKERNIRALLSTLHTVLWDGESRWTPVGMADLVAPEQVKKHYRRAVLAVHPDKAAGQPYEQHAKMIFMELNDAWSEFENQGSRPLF", "assay": "Selectivity interaction (KinomeScan (DiscoverX)) EUB0001049a GAK", "settings": "at 1 µM"}, "[7]": {"target": "Mitogen-activated protein kinase 9 (Homo sapiens, UniProt P45984)", "sequence (P45984 whole entry, looked up)": "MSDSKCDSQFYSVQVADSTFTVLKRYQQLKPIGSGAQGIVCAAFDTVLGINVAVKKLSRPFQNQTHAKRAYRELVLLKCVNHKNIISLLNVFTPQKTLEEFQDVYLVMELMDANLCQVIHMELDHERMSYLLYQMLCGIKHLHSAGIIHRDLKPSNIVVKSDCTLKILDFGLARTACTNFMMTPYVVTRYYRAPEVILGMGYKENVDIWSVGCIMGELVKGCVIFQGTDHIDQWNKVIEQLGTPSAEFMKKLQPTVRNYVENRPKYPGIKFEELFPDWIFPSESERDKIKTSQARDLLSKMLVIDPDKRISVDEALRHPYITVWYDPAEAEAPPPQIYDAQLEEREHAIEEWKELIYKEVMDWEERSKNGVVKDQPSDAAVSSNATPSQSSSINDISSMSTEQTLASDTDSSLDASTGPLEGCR", "assay": "Selectivity interaction (Kinase panel (Invitrogen)) EUB0000639a MAPK9", "settings": "at 200 nM"}, "[8]": {"target": "Serine/threonine-protein kinase VRK2 (Homo sapiens) (UniProt Q86Y07)", "sequence (Q86Y07 whole entry)": "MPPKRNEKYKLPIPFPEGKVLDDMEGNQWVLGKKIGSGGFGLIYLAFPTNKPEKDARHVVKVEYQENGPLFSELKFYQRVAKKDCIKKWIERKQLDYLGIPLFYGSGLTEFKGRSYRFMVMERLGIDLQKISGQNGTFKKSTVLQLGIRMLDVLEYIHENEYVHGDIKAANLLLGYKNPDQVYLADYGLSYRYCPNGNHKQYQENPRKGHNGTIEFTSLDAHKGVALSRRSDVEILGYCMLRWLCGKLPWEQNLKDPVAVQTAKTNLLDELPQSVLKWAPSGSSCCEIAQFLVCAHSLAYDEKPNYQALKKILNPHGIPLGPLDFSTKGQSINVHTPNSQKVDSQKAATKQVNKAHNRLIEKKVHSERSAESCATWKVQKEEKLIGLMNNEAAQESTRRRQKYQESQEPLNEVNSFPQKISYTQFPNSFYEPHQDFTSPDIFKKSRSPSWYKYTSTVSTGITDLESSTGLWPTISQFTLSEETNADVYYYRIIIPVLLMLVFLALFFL", "assay": "Selectivity interaction (ActivX KiNativ screen (kinase selectivity in THP-1 cell lysates)) EUB0000639a VRK2", "type": "subcellular", "settings": "lysate"}, "[9]": {"target": "Tyrosine-protein kinase Fyn (Homo sapiens) (UniProt P06241)", "sequence (P06241 2-537 limits assumed)": "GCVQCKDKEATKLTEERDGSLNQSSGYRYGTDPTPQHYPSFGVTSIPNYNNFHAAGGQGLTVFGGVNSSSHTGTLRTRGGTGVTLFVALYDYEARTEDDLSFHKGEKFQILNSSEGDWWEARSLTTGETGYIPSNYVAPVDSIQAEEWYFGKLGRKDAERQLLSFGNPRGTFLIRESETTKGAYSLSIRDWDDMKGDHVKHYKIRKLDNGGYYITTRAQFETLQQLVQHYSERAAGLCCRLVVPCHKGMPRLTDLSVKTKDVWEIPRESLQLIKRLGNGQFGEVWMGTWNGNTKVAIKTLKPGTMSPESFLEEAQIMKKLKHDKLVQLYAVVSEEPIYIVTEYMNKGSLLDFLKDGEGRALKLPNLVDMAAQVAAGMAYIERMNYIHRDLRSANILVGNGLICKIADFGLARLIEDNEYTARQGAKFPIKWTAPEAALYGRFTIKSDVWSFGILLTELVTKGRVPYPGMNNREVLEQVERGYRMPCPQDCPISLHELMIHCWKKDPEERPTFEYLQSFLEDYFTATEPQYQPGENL", "assay": "Selectivity interaction (KinomeScan (DiscoverX)) EUB0000655a FYN", "settings": "at 10 µM"}, "[10]": {"target": "Serine/threonine-protein kinase PAK 3 (Homo sapiens) (UniProt O75914)", "sequence (O75914 whole entry, looked up)": "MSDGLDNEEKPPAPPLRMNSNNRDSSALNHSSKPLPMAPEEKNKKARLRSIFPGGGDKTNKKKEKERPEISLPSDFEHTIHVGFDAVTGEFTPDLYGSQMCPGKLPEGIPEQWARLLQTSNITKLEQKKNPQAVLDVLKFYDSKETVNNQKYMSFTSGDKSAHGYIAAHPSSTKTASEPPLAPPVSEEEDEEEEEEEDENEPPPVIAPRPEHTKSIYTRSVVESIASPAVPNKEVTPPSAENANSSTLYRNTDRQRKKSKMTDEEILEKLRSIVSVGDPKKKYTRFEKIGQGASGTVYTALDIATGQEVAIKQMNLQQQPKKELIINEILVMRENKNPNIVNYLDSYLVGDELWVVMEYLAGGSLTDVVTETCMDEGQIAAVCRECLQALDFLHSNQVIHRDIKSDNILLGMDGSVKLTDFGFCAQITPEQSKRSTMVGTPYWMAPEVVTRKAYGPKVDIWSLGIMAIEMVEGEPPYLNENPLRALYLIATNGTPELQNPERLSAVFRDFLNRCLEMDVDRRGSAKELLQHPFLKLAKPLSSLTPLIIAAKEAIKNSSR", "assay": "Selectivity interaction (KinomeScan (DiscoverX)) EUB0000092b PAK3", "settings": "at 10 µM"}, "[11]": {"target": "Serine/threonine-protein kinase B-raf (Homo sapiens) (UniProt P15056)", "sequence (P15056 whole entry)": "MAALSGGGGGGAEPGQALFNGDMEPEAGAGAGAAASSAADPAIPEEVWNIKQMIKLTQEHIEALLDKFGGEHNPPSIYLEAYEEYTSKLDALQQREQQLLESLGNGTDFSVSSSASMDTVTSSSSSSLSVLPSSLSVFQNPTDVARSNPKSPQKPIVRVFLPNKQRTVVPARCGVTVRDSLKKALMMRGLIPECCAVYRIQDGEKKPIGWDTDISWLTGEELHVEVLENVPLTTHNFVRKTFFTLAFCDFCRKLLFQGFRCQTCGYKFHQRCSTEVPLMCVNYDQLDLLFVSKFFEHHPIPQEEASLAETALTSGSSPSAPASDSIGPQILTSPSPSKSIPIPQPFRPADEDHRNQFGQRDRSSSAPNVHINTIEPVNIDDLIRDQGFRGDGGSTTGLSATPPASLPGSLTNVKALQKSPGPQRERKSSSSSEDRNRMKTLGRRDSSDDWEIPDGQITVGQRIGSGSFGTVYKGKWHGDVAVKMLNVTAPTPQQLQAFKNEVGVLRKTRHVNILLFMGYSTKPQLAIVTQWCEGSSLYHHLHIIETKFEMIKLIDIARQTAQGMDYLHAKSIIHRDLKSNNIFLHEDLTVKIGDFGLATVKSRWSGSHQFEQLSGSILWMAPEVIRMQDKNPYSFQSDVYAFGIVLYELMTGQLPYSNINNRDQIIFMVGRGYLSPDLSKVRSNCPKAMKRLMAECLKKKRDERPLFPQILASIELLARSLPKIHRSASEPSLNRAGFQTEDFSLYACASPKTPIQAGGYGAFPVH", "assay": "(§1) Selectivity interaction (Ambit KINOMEscan and KiNATiv profiling in Jurkat cells) EUB0000090b BRAF", "type": "cell-based", "settings": "at 1 µM"}, "[12]": {"system": "Serine/threonine-protein kinase B-raf (Homo sapiens), P15056 [V600E]", "sequence (P15056 whole entry V600E)": "as the sequence (P15056 whole entry) above, with V600E counted along it", "assay": "as §1", "type": "cell-based", "settings": "at 1 µM"}},
  "data": [
    {"smiles": "CN(C)CCCOc1ccc(-c2cc(NCCCn3cccn3)nc(S(C)(=O)=O)n2)cc1", "values": [
      {"measurement": "dTM", "setting": "CREB-binding protein", "result": "< 2", "unit": "K"}
    ]},
    {"smiles": "COCC(=O)NC/C=C/c1ccc2ncnc(Nc3ccc(Oc4ccc(C)nc4)c(C)c3)c2c1", "note": "[CP-724714]", "values": [
      {"measurement": "% of control", "setting": "[1]", "result": 100, "unit": "%"}
    ]},
    {"smiles": "CNCCN1CCC(c2cc(CN(C)C(=O)c3cccc(Oc4ccccc4)c3)ccn2)CC1", "values": [
      {"measurement": "% activity", "setting": "[2]", "result": "> 90", "unit": "%"}
    ]},
    {"smiles": "Nc1cnc(N2CCc3cc(S(=O)(=O)Nc4c(F)cc(Cl)cc4F)cc(N4CCCC4=O)c32)nc1", "note": "[TP-020n]", "values": [
      {"measurement": "% of control", "setting": "[3]", "result": 78, "unit": "%"}
    ]},
    {"smiles": "Cn1cc(-n2cnc3c(NCc4nc5cc(Cl)c(Cl)cc5[nH]4)nc(N4CCOCC4)nc32)cn1", "values": [
      {"measurement": "% of inhibition", "setting": "[4]", "result": -8.6, "unit": "%"}
    ]},
    {"smiles": "Cc1cc([C@@H](C)Nc2ccccc2C(=O)O)c2nc(N3CCOCC3)cc(=O)n2c1", "note": "[AZD-6482]", "values": [
      {"measurement": "% of control", "setting": "[5]", "result": 100, "unit": "%"}
    ]},
    {"smiles": "COc1cc(Nc2nc(C)cc(-c3cnn4nc(OC)ccc34)n2)cc(C(F)(F)F)c1", "values": [
      {"measurement": "% of control", "setting": "[6]", "result": 87, "unit": "%"}
    ]},
    {"smiles": "CC[C@@H]1[C@H](F)C(=O)N[C@@H]1COc1nccc2cc(C(N)=O)c(OC)cc12", "note": "[ZIMLOVISERTIB]", "values": [
      {"measurement": "% of inhibition", "setting": "[7]", "result": 2.83, "unit": "%"},
      {"measurement": "% of inhibition", "setting": "[8]; at 0.01 µM", "result": -16.6, "unit": "%"},
      {"measurement": "% of inhibition", "setting": "[8]; at 0.04 µM", "result": -6, "unit": "%"},
      {"measurement": "% of inhibition", "setting": "[8]; at 0.2 µM", "result": -28.4, "unit": "%"},
      {"measurement": "% of inhibition", "setting": "[8]; at 1 µM", "result": -14.8, "unit": "%"},
      {"measurement": "% of inhibition", "setting": "[8]; at 5 µM", "result": 8.1, "unit": "%"}
    ]},
    {"smiles": "CN(C)CCOc1ccc(-c2nc(-c3ccncc3)c(-c3ccc4c(c3)CC/C4=N\\O)[nH]2)cc1", "values": [
      {"measurement": "% of control", "setting": "[9]", "result": 79, "unit": "%"}
    ]},
    {"smiles": "CCC(=O)N1CCN(c2ccc(-n3c(=O)ccc4cnc5ccc(-c6cnc7ccccc7c6)cc5c43)cc2C(F)(F)F)CC1", "values": [
      {"measurement": "% of control", "setting": "[10]", "result": 100, "unit": "%"}
    ]},
    {"smiles": "CN(C)C/C=C/C(=O)Nc1ccc(C(=O)N2CCCC(Nc3ncc(Cl)c(-c4c[nH]c5ccccc45)n3)C2)cc1", "note": "(configuration not stated)", "values": [
      {"measurement": "% of control", "setting": "[11]", "result": 98, "unit": "%"},
      {"measurement": "% of control", "setting": "[12]", "result": 100, "unit": "%"}
    ]}
  ]
}
